Data from US6767569B1, “Surface decontamination of cooked sausage and processed meat and poultry products” (priority 1999, dated 2004).

What was measured:
[1] = test system: Salmonella spp.; assay type: cell-based; details: pork skin; 5 seconds spray; 2% lactic acid, 2% acetic acid, 0.1% peracetic acid; after 48 hours
Description: (§1) Samples of pork skin were inoculated separately with either 5 strains of E. coli or 5 strains of Salmonella spp. (mixtures X and Y, see Example 4). Five different treatments were evaluated for effectiveness in reducing bacteria on pork skin. […] EMB agar was used for E. coli and XLD for Salmonella, and a nutrient agar was also used for E. coli and Salmonella for total count.
(§2) The five strains of generic E. coli and five strains of Salmonella spp. were cultured and transferred individually into 100 mL of tryptic soy broth (TSB, DIFCO, Detroit, Mich.) with 1% dextrose (Sigma, St. Louis, Mo.) in duplicate. Dextrose was added to induce acid tolerance in the microbial cell. The cultures were incubated at 35° C. for 24 hrs. to obtain ca. 10^9 colony forming units (CFU)/mL. The cells were harvested by the centrifuging each culture at 10,000 Xg force for 10 min. at 4° C., (Beckman J2-HS centrifuge, Beckman Instruments, Inc., Palo Alto, Calif.). After centrifugation, the supernatant was poured off, and cells remained in pellet form. Each pellet was individually re-suspended with 50 mL of 0.1% peptonewater (DIFCO, Detroit, Mich.). All five strains of E. coli or Salmonella spp. inoculum were transferred to separate HDPE plastic spray bottles (Sprayco™, Detroit, Mich.) to be used in the mist inoculation of pork skin samples.
(§3) For E. coli, PCA and EMB media were used, and for Salmonella, PCA and XLD media were used. Bacto Plate Count Agar (PCA) was used in this study as a standard methods medium for the enumeration of bacteria before and after treatments. Spiral (sl), or spread (sd) plate technique were used for viable cell counts. Duplicate plates were performed for each treatment.
(§4) Fresh pork skins taken from the loin region were cut to rectangles of 19.35 cm^2. A hole was bored into the top of each sample so that each sample could be suspended from an individual hook in the spray cabinet. Samples were laid out onto trays wrapped in butcher paper. Each tray was individually spray inoculated with E. coli or Salmonella spp. in a Plexiglas spray chamber to ca. 8.4 mL of inoculum. After the inoculation, each tray was placed under a laminar flow hood for 1 hr. to allow the surface to dry and for the attachment of the bacteria to the pork skin.
(§5) The peracetic acid (PAA) used in this study was a 35.0% PAA buffered, liquid solution prepared from a STERIS 20™ two compartment cup (a dry powder containing anticorrosive additives, buffers, sequestrants, and surfactants). The peracetic acid determined before each use of the treatment using a calibration curve.
(§6) Five inoculated samples were individually placed on stainless steel hooks in. a spray cabinet at ambient temperature.
(§7) The samples were exposed to a continuous spray of the selected treatment for 5 seconds at a spray pressure of 16-18 psi.
(§8) The treated samples were placed into individual stomacher bags containing 30 mL of 0.1% peptone water (DIFCO, Detroit, Mich.) and stomached for 2 min. Serial dilutions of 0, 10^−2, and 10^−4 were spiral plated (WASP spiral plater, Bioscience International, Rockville, Md.) on PCA (DIFCO, Detroit, Mich.) and EMB (DIFCO, Detroit, Mich.) for E. coli and on plate count agar (PCA, DIFCO, Detroit, Mich.) and xylose lysine decarboxylase agar (XLD, DIFCO, Detroit, Mich.) for Salmonella spp. Samples were also spread plated on PCA and EMB agar for E. coli or PCA and XLD agar for Salmonella spp, using […] for a total of 1 mL on 4 plates. This was to ensure a countable plate. Plates were inverted and incubated at 35° C. for 24 hrs. (48 hrs. for Salmonella spp.).

[2] = test system: E. coli; assay type: cell-based; details: 5 seconds spray
Description: as §1, §2, §3, §4, §5, §6, §7, §8

[3] = test system: Listeria monocytogenes ATCC. 43256; assay: D-values for Listeria monocytogenes in peracetic acid solutions (suspension test); assay type: cell-based
Description: Peracetic acid solutions of 500, 1000, and 2000 mg/L (ppm) were prepared as for Example 1, using deionized water. To 100 mL samples of the solutions, 1.7×10^6 Listeria monocytogenes ATCC. 43256 per mL were added and mixed. The samples were maintained at a preselected temperature ([…], ˜15° C., or ˜22° C.). At 10, 20, 30, 40, and 50 seconds contact time, 1 mL was removed, neutralized, and the Listeria monocytogenes organisms remaining were determined by plating on TSA and incubation. […] D-values (time required to kill one log of the test microorganism—in this case, a reduction in microorganisms from 1.7×10^6 initially to 1.7×10^5) were determined, as shown in TABLE 4. D-values below the detection limit of the test are shown as <2 seconds.

[4] = test system: Listeria species; assay: Dip treatment of inoculated frankfurters, qualitative (enrichment) procedure with TECRA Listeria ELISA; assay type: cell-based, Listeria monocytogenes; parameters: key: POS: Positive indicates that at least one colony grew during the test; NEG: Negative indicated that no colonies grew
Description: Following air drying, one frank per treatment was placed in a sterile Stomacher bag and analyzed quantitatively for residual L. monocytogenes populations. The remaining two franks were retained in sterile Stomacher bags and used for qualitative analysis, if necessary (in the event no surviving cells were detected using quantitative procedures).
The plating techniques used were capable of detection down to 5 cfu/ml (1 colony/0.2 ml) for the spiral plating method and 0.5 cfu/ml for the spread plating method (1 colony/2 ml). In the event that no surviving L. monocytogenes cells were observed using direct plating procedures, two franks per treatment were evaluated using qualitative (enrichment) procedures. A 10 mL aliquot of the retained homogenate was placed added to 90 mL of UVM broth to achieve a 1:10 dilution. These samples were shaken by hand for 1 minute and incubated at 30° C. for 24 h. Following this primary enrichment, 0.1 mL was transferred to 10 mL of Fraser broth and incubated at 30° C. for 24 h. This secondary enrichment was then used to perform an ELISA screening procedure (TECRA Listeria species assay). Results of this qualitative analysis were used to indicate whether the sample was “positive” or “negative” for the presence of Listeria species.
The target inoculation level before treatment was 1,000 CFU/frank. It can be seen that a 2 second treatment is sufficient to remove most, but not all Listeria from the franks. A 10 second treatment reduces the Listeria count below the detection limit of the quantitative assessment procedures, although a few colonies were detected in the qualitative procedure. […] Therefore, the true population of any samples with a population of <90 CFU/frank could not be specifically determined.

[5] = pork skin, 2% lactic acid, 2% acetic acid, 0.1% peracetic acid, after 24 hours

CC(=O)OO [peracetic acid]
Total Count (Salmonella) on PCA [1]: 5.34 Log CFU/cm^2 | Total Count (Salmonella) on XLD [1]: 3.83 Log CFU/cm^2 | reduction of E. coli on pork skin ([2]; peracetic acid 0.1%): 3 log/cm^2 | Total Count (E. coli) on EMB [2, 5]: 3.04 Log CFU/cm^2 | Total Count (E. coli) on PCA [2, 5]: 3.28 Log CFU/cm^2 | D-value ([3]; 500 mg/L, 8.3-8.5 °C, pH 3.7-3.7): 2 s | D-value ([3]; 500 mg/L, 14.7-15.0 °C, pH 3.4-3.6): <2 s | D-value ([3]; 500 mg/L, 22.7-22.8 °C, pH 3.4-3.6): <2 s | D-value ([3]; 1000 mg/L, 8.1-8.1 °C, pH 3.2-3.4): <2 s | D-value ([3]; 1000 mg/L, 15.0-15.2 °C, pH 3.2-3.4): <2 s | D-value ([3]; 2000 mg/L, 8.1-8.4 °C, pH 3.0-3.1): <2 s | D-value ([3]; 2000 mg/L, temperature range printed 3.0-3.1 °C, pH 3.0-3.1): <2 s | Listeria monocytogenes organisms remaining ([3]; 500, 1000, 2000 mg/L, 10-50 seconds contact, except the sample at 500 mg/L, ~8 °C, 10 seconds): destroyed in all cases | POS/NEG (qualitative analysis after treatment) ([4]; PAA 100 ppm (actual 114 ppm), 2 sec exposure, 2 sec rinse): POS | POS/NEG (qualitative analysis after treatment) ([4]; PAA 100 ppm (actual 114 ppm), 10 sec exposure, 10 sec rinse): POS | POS/NEG (qualitative analysis after treatment) ([4]; PAA 500 ppm (actual 572 ppm), 2 sec exposure, 2 sec rinse): POS | POS/NEG (qualitative analysis after treatment) ([4]; PAA 500 ppm (actual 572 ppm), 10 sec exposure, 10 sec rinse): POS and NEG | POS/NEG (qualitative analysis after treatment) ([4]; PAA 1000 ppm (actual 1146 ppm), 2 sec exposure, 2 sec rinse): NEG and POS | POS/NEG (qualitative analysis after treatment) ([4]; PAA 1000 ppm (actual 1146 ppm), 10 sec exposure, 10 sec rinse): NEG and POS
